# Values of other authors in patent publication US6537523B1, “Diagnosis and treatment of cancer having clonal macrophage involvement” (The Regents of the University of California, priority 1994, dated 2003).
# System: HIV antigens in human blood cells including macrophages
substance,measurement,value
Trichosanthin,expression of HIV antigens,inhibit expression of HIV antigens
